pIC50: −log10 of the molar value.
Biological target: T1, human glucagon receptor (Homo sapiens, UniProt P47871)
T1 construct: made in house; host or cells: FreeStyle CHO cells, transient transfection with pMSRαneo/hGCGR; membrane fraction (35,000 rpm pellet)
Experiment: Glucagon binding inhibitory activity ([125I]-glucagon binding to glucagon receptor membrane protein)
Conditions: for inhibition at 10 µM / inhibitory rate (%) at 10 μM: test compound 10 μM, 0.4% DMSO = 0%, non-labeled glucagon 1 μM = 100%; for inhibition at 10 µM: read-out: inhibitory rate (%) at 10 μM
Outline: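 Receptor source was a membrane fraction of transiently transfected CHO cells bearing human receptor; 90 min room-temperature binding, filtration harvest, scintillation counting.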

T1 sequence (P47871 26-477): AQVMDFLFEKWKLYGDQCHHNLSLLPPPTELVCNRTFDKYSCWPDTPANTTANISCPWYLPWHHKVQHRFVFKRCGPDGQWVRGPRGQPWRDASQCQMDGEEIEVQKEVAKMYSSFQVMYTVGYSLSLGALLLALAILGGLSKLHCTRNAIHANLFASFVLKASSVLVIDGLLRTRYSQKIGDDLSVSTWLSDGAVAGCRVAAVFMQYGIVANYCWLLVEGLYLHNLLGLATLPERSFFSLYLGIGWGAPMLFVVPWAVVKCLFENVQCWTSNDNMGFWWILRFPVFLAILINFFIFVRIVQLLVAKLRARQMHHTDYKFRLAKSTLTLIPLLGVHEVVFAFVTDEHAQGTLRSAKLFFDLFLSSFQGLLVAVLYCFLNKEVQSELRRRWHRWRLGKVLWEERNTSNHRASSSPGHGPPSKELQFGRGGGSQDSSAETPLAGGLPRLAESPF

| inhibition at 10 µM [%] | further results | SMILES |
| --- | --- | --- |
| 72 | pIC50 (human glucagon receptor membrane protein, [125I]-glucagon, 90 min room temperature): 6.64 | Cc1c(C(Nc2ccc(C(=O)NCCC(=O)O)cc2)C2CCCCC2)oc2ccccc12 (centres unmarked) [Example A17, 3-{[(4-{[cyclohexyl(3-methyl-1-benzofuran-2-yl)methyl]amino}phenyl)carbonyl]amino}propanoic acid] |
| 71 |  | O=C(O)CCNC(=O)c1ccc(NC(c2nn(C3CCCCC3)c3ccccc23)C2CCCCC2)cc1 (centres unmarked) [Example A19, 3-{[(4-{[cyclohexyl(1-cyclohexyl-1H-indazol-3-yl)methyl]amino}phenyl)carbonyl]amino}propanoic acid] |
| 72 |  | COc1cccc2cc(C(Nc3ccc(C(=O)NCCC(=O)O)cc3)C3CCCCC3)oc12 (centres unmarked) [Example A20, 3-{[(4-{[cyclohexyl(7-methoxy-1-benzofuran-2-yl)methyl]amino}phenyl)carbonyl]amino}propanoic acid] |
| 62 |  | COc1cccc2cc(C(Nc3ccc(C(=O)N(C)CCC(=O)O)cc3)C3CCCCC3)oc12 (centres unmarked) [Example A21, 3-{[(4-{[cyclohexyl(7-methoxy-1-benzofuran-2-yl)methyl]amino}phenyl)carbonyl](methyl)amino}propanoic acid] |
| 66 |  | COc1ccc2oc(C(Nc3ccc(C(=O)NCCC(=O)O)cc3)C3CCCCC3)cc2c1 (centres unmarked) [Example A22, 3-{[(4-{[cyclohexyl(5-methoxy-1-benzofuran-2-yl)methyl]amino}phenyl)carbonyl]amino}propanoic acid] |
| 77 |  | Cc1c(C(CC(C)C)Nc2ccc(C(=O)NCCC(=O)O)cc2)oc2ccccc12 (centres unmarked) [Example A23, 3-{[(4-{[3-methyl-1-(3-methyl-1-benzofuran-2-yl)butyl]amino}phenyl)carbonyl]amino}propanoic acid] |
| 70 |  | Cc1c(C(CC(C)C)Nc2ccc(C(=O)N(C)CCC(=O)O)cc2)oc2ccccc12 (centres unmarked) [Example A24, 3-{methyl[(4-{[3-methyl-1-(3-methyl-1-benzofuran-2-yl)butyl]amino}phenyl)carbonyl]amino}propanoic acid] |
| 60 |  | COc1ccc2oc(C(Nc3ccc(C(=O)N(C)CCC(=O)O)cc3)C3CCCCC3)cc2c1 (centres unmarked) [Example A25, 3-{[(4-{[cyclohexyl(5-methoxy-1-benzofuran-2-yl)methyl]amino}phenyl)carbonyl](methyl)amino}propanoic acid] |
| 64 |  | CCc1oc2ccccc2c1C(Nc1ccc(C(=O)N(C)CCC(=O)O)cc1)C1CCCCC1 (centres unmarked) [Example A26, 3-{[(4-{[cyclohexyl(2-ethyl-1-benzofuran-3-yl)methyl]amino}phenyl)carbonyl](methyl)amino}propanoic acid] |
| 80 |  | COc1ccc2oc(C(Nc3ccc(C(=O)N(C)CCC(=O)O)cc3)C3CCCCC3)c(C)c2c1 (centres unmarked) [Example A27, 3-{[(4-{[cyclohexyl(5-methoxy-3-methyl-1-benzofuran-2-yl)methyl]amino}phenyl)carbonyl](methyl)amino}propanoic acid] |
| 62 |  | COc1ccc2cc(C(Nc3ccc(C(=O)N(C)CCC(=O)O)cc3)C3CCCCC3)oc2c1 (centres unmarked) [Example A28, 3-{[(4-{[cyclohexyl(6-methoxy-1-benzofuran-2-yl)methyl]amino}phenyl)carbonyl](methyl)amino}propanoic acid] |
| 77 |  | CCc1oc2ccccc2c1C(Nc1ccc(C(=O)NCCC(=O)O)cc1)C1CCCCC1 (centres unmarked) [Example A29, 3-{[(4-{[cyclohexyl(2-ethyl-1-benzofuran-3-yl)methyl]amino}phenyl)carbonyl]amino}propanoic acid] |
| 76 |  | COc1ccc2oc(C(Nc3ccc(C(=O)NCCC(=O)O)cc3)C3CCCCC3)c(C)c2c1 (centres unmarked) [Example A30, 3-{[(4-{[cyclohexyl(5-methoxy-3-methyl-1-benzofuran-2-yl)methyl]amino}phenyl)carbonyl]amino}propanoic acid] |
| 62 |  | CCc1c(C(CC(C)C)Nc2ccc(C(=O)N(C)CCC(=O)O)cc2)oc2ccccc12 (centres unmarked) [Example A31, 3-{[(4-{[1-(3-ethyl-1-benzofuran-2-yl)-3-methylbutyl]amino}phenyl)carbonyl](methyl)amino}propanoic acid] |
| 72 |  | Cc1c(C(CC(C)C)Nc2ccc(C(=O)N(C)CCC(=O)O)cc2)sc2ccccc12 (centres unmarked) [Example A32, 3-{methyl[(4-{[3-methyl-1-(3-methyl-1-benzothiophen-2-yl)butyl]amino}phenyl)carbonyl]amino}propanoic acid] |
| 76 |  | Cc1c(C(CC(C)C)Nc2ccc(C(=O)NCCC(=O)O)cc2)sc2ccccc12 (centres unmarked) [Example A33, 3-{[(4-{[3-methyl-1-(3-methyl-1-benzothiophen-2-yl)butyl]amino}phenyl)carbonyl]amino}propanoic acid] |
| 75 |  | CCc1c(C(CC(C)C)Nc2ccc(C(=O)NCCC(=O)O)cc2)oc2ccccc12 (centres unmarked) [Example A34, 3-{[(4-{[1-(3-ethyl-1-benzofuran-2-yl)-3-methylbutyl]amino}phenyl)carbonyl]amino}propanoic acid] |
| 71 |  | COc1ccc2cc(C(Nc3ccc(C(=O)NCCC(=O)O)cc3)C3CCCCC3)oc2c1 (centres unmarked) [Example A35, 3-{[(4-{[cyclohexyl(6-methoxy-1-benzofuran-2-yl)methyl]amino}phenyl)carbonyl]amino}propanoic acid] |
| 73 |  | Cc1c(C(CC(C)C)Nc2ccc(C(=O)NCCC(=O)O)cn2)sc2ccccc12 (centres unmarked) [Example A36, 3-{[(6-{[3-methyl-1-(3-methyl-1-benzothiophen-2-yl)butyl]amino}pyridin-3-yl)carbonyl]amino}propanoic acid] |
| 78 |  | Cc1c(C(Nc2ccc(C(=O)N(C)CCC(=O)O)cc2)C2CCCCC2)oc2ccc(F)cc12 (centres unmarked) [Example A37, 3-{[(4-{[cyclohexyl(5-fluoro-3-methyl-1-benzofuran-2-yl)methyl]amino}phenyl)carbonyl](methyl)amino}propanoic acid] |
| 56 |  | Cc1c(C(CC(C)C)Nc2ccc(C(=O)N(C)CCC(=O)O)cn2)sc2ccccc12 (centres unmarked) [Example A38, 3-{methyl[(6-{[3-methyl-1-(3-methyl-1-benzothiophen-2-yl)butyl]amino}pyridin-3-yl)carbonyl]amino}propanoic acid] |
| 78 |  | Cc1c(C(Nc2ccc(C(=O)NCCC(=O)O)cc2)C2CCCCC2)oc2ccc(F)cc12 (centres unmarked) [Example A39, 3-{[(4-{[cyclohexyl(5-fluoro-3-methyl-1-benzofuran-2-yl)methyl]amino}phenyl)carbonyl]amino}propanoic acid] |
|  | inhibitory rate (%) at 10 μM: 80% | COc1ccc2oc(C(Nc3ccc(C(=O)N(C)CCC(=O)O)cc3)C3CCCCC3)c(C)c2c1 (centres unmarked) [Example A43, 3-{[(4-{[cyclohexyl(5-methoxy-3-methyl-1-benzofuran-2-yl)methyl]amino}phenyl)carbonyl](methyl)amino}propanoic acid] |
|  | inhibitory rate (%) at 10 μM: 82% | COc1ccc2oc(C(Nc3ccc(C(=O)N(C)CCC(=O)O)cc3)C3CCCCC3)c(C)c2c1 (centres unmarked) [Example A44, 3-{[(4-{[cyclohexyl(5-methoxy-3-methyl-1-benzofuran-2-yl)methyl]amino}phenyl)carbonyl](methyl)amino}propanoic acid] |
|  | inhibitory rate (%) at 10 μM: 78% | Cc1c(C(Nc2ccc(C(=O)N(C)CCC(=O)O)cc2)C2CCCCC2)oc2ccc(F)cc12 (centres unmarked) [Example A46, 3-{[(4-{[cyclohexyl(5-fluoro-3-methyl-1-benzofuran-2-yl)methyl]amino}phenyl)carbonyl](methyl)amino}propanoic acid] |
